Publication PMC8519103 (Chemmedchem, 2021)
Where “and” joins values, the source holds several entries; their conditions need not be identical. Identical values can stand only once.

System: M. bovis BCG
Assay: microbe, parasite or virus in culture
Format: cell-based, Mycobacterium bovis DSM-43990 (BCGT)
Conditions: not given

| SMILES | MIC50 relative to KD (MIC50 = x × KD) |
| --- | --- |
| C=CC(c1ccc(-c2ccc3c(c2)OCO3)cc1)n1ccnc1 (stereo not drawn) [Compound S5, 1‐(1‐(4‐(benzo[d][1,3]dioxol‐5‐yl)phenyl)allyl)‐1H‐imidazole] | > 2 |
| C=CC(c1ccc(-c2ccc3[nH]ccc3c2)cc1)n1ccnc1 (stereo not drawn) [Compound S10, 5‐(4‐(1‐(1H‐imidazol‐1‐yl)allyl)phenyl)‐1H‐indole] | > 2 |
| C=CC(c1ccc(-c2ccc3c(c2)OCO3)cc1F)n1ccnc1 (stereo not drawn) [Compound S8] | > 2 |
| C=CC(c1ccc(-c2ccc(OC)c(C)c2)cc1)n1ccnc1 (stereo not drawn) [Compound S4, 1‐(1‐(4’‐methoxy‐3’‐methyl‐[1,1’‐biphenyl]‐4‐yl)allyl)‐1H‐imidazole] | > 2 |
| C=CC(c1ccc(-c2ccc(OC)c(OC)c2)cc1)n1ccnc1 (stereo not drawn) [Compound S3, 1‐(1‐(3’,4’‐dimethoxy‐[1,1’‐biphenyl]‐4‐yl)allyl)‐1H‐imidazole] | > 2 |

Same assay, conditions: Mycobacterium tuberculosis variant bovis BCG, BCG, read-out: MIC50

| SMILES | IC50 |
| --- | --- |
| Clc1ccc(COC(Cn2ccnc2)c2ccc(Cl)cc2Cl)cc1 (stereo not drawn) [Econazole, reference compound] | 2.6 µg/mL and 12.7 µM |
